24 compounds from US10377770B2 (Novartis AG, priority 2015, dated 2019) can be followed below.

The target of this assay is C-Raf FL (full length CRAF with Y340E and Y341E activating mutations, co-expressed with h14-3-3 zeta) (Homo sapiens (Human), UniProt P04049, Y340E/Y341E). Put plainly: In vitro Raf activity determination, AlphaScreen p-MEK readout, c-Raf (C-Raf FL). It counts as biochemical. The settings on record: c-Raf approximately 4 nM, ATP 1 μM, pre-incubation 60 minutes, reaction 1 hour. In outline:
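Phosphorylation of kinase-dead biotinylated MEK1 (~10 nM) by C-Raf FL (~4 nM) read by AlphaScreen luminescence with anti-phospho-MEK1/2 after EDTA stop. ATP was 1 μM, with a 1 h reaction at room temperature. Compounds were pre-incubated with enzyme and substrate for 60 min in Tris/MgCl2 buffer, pH 7.5.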

C-Raf FL (full length CRAF with Y340E and Y341E activating mutations, co-expressed with h14-3-3 zeta), sequence (P04049 whole entry Y340E/Y341E): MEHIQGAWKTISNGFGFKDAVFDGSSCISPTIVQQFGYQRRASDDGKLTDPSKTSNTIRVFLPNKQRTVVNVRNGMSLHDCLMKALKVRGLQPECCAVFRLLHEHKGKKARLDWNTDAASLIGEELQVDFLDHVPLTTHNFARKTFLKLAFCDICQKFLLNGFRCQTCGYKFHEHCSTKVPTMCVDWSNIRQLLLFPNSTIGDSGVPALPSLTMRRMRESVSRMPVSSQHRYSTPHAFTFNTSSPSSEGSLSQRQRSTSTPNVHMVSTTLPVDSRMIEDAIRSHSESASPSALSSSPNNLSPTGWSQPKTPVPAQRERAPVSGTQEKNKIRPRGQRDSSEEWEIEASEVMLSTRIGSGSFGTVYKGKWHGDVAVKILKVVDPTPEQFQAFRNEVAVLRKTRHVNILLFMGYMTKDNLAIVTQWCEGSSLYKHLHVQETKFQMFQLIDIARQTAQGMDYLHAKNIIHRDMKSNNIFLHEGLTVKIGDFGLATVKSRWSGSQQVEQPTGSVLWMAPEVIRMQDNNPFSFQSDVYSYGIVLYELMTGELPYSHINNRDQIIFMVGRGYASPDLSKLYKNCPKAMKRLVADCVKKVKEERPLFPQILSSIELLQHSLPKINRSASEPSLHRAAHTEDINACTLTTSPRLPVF
C-Raf FL (full length CRAF with Y340E and Y341E activating mutations, co-expressed with h14-3-3 zeta), sequence (P63104 whole entry partner): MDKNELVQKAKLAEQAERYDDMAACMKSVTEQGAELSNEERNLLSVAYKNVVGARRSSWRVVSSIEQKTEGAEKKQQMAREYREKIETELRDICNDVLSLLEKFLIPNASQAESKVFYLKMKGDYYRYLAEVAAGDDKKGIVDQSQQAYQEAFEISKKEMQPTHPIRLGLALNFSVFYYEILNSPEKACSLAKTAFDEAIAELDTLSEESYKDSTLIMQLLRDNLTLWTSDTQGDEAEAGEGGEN

`Cc1ccc(NC(=O)c2ccnc(C(C)(F)F)c2)cc1-c1cc2c(cc1F)C[C@@](F)(CO)[C@@H]1COCCN21` [Example 481, N-(3-((4aS,5S)-5,8-difluoro-5-(hydroxymethyl)-1,2,4,4a,5,6-hexahydro-[1,4]oxazino[4,3-a]quinolin-9-yl)-4-methylphenyl)-2-(1,1-difluoroethyl)iso-nicotinamide] displayed a half-inhibitory concentration (IC50) of 1100 pM. With `Cc1ccc(NC(=O)c2ccnc(C(F)(F)F)c2F)cc1-c1cnc2c(c1)N1CCOC[C@H]1C[C@H]2OCCO` [Example 510, 3-fluoro-N-(3-((4aR,6R)-6-(2-hydroxyethoxy)-1,2,4,4a,5,6-hexahydro-[1,4]oxazino[4,3-a][1,5]naphthyridin-9-yl)-4-methylphenyl)-2-(trifluoromethyl)iso-nicotinamide] the figure was 100 pM; with `Cc1ccc(NC(=O)c2ccnc(C(C)(F)F)c2)cc1-c1ccc2c(c1)N1CCOC[C@H]1[C@H](C#N)C2` (racemic) [Example 90, (rac)-N-(3-(5-cyano-1,2,4,4a,5,6-hexahydro-[1,4]oxazino[4,3-a]quinolin-9-yl)-4-methylphenyl)-2-(1,1-difluoroethyl)isonicotinamid], 23 pM. In the case of `CCN1C[C@H]2COCCN2c2cc(-c3cc(NC(=O)c4ccnc(C(F)(F)F)c4F)ccc3C)cnc2C1=O` [Example 499, (S)-N-(3-(6-ethyl-7-oxo-1,2,4a,5,6,7-hexahydro-4H-[1,4]oxazino[4,3-a]pyrido[2,3-f][1,4]diazepin-10-yl)-4-methyplhenyl)-3-fluoro-2-(trifluoromethyl)iso-nicotinamide], half-maximal inhibition (IC50) required 400 pM. On to `Cc1ccc(NC(=O)c2ccnc(C(C)(F)F)c2)cc1-c1cnc2c(c1)N1CCOCC1C1(COC1)C2` (racemic) [Example 152, rac-2-(1,1-difluoroethyl)-N-(4-methyl-3-(2,4,4a,6-tetrahydro-1H-spiro[[1,4]oxazino[4,3-a][1,5]naphthyridine-5,3′-oxetan]-9-yl)phenyl)isonicotinamide], for which the concentration for half-maximal inhibition (IC50) was determined as 11 pM. As to `Cc1ccc(NC(=O)c2ccnc(C(C)(F)F)c2)cc1-c1ccc2c(c1)N1CCOCC1C(F)(CO)C2` (single isomer, unassigned) [Example 83, 2-(1,1-difluoroethyl)-N-(3-(5-fluoro-5-(hydroxymethyl)-1,2,4,4a,5,6-hexahydro-[1,4]oxazino[4,3-a]quinolin-9-yl)-4-methylphenyl)isonicotinamide], half-maximal inhibition (IC50) was put at 850 pM. For the compound `Cc1ccc(NC(=O)c2ccnc(C(F)(F)F)c2F)cc1-c1cnc2c(c1)N1CCOC[C@H]1CC(=O)N2CCO` [Example 322, (R)-3-fluoro-N-(3-(7-(2-hydroxyethyl)-6-oxo-2,4,4a,5,6,7-hexahydro-1H-[1,4]oxazino[4,3-d]pyrido[2,3-b][1,4]diazepin-10-yl)-4-methylphenyl)-2-(trifluoromethyl) isonicotinamide], half-maximal inhibition (IC50) was put at 300 pM. As to `Cc1ccc(NC(=O)c2cnnc(C(F)(F)F)c2)cc1-c1cc(F)c2c(c1)N1CCOC[C@H]1[C@](F)(CO)C2` [Example 423, N-(3-((4aS,5S)-5,7-difluoro-5-(hydroxymethyl)-1,2,4,4a,5,6-hexahydro-[1,4]oxazino[4,3-a]quinolin-9-yl)-4-methylphenyl)-6-(trifluoromethyl)pyridazine-4-carboxamide], the IC50 came to 700 pM.

`Cc1ccc(NC(=O)c2ccnc(C(C)(C)C#N)c2)cc1-c1cnc2c(c1)N1CCOC[C@@H]1C[C@@H]2O` [Example 151, 2-(2-cyanopropan-2-yl)-N-(3-((4aS,6S)-6-hydroxy-1,2,4,4a,5,6-hexahydro-[1,4]oxazino[4,3-a][1,5]naphthyridin-9-yl)-4-methylphenyl)isonicotinamide] came in with an IC50 of 14 pM. As to `Cc1ccc(NC(=O)c2ccnc(C(C)(F)F)c2)cc1-c1cnc2c(c1)N1CCOCC1CC(=O)N2` (racemic) [Example 124, rac-2-(1,1-Difluoroethyl)-N-(4-methyl-3-(6-oxo-1,2,4a,5,6,7-hexahydro-4H-[1,4]oxazino[4,3-d]pyrido[2,3-b][1,4]diazepin-10-yl)phenyl)isonicotinamide], the IC50 was 9.4 pM. Turning to `Cc1ccc(NC(=O)c2cncc(C(F)(F)F)c2)cc1-c1cnc2c(c1)[C@@H]1CCOC[C@H]1C(=O)N2CCO` [Example 306, N-(3-((4aS,10bR)-6-(2-hydroxyethyl)-5-oxo-2,4,4a,5,6,10b-hexahydro-1H-pyrano[3,4-c][1,8]naphthyridin-9-yl)-4-methylphenyl)-5-(trifluoromethyl) nicotinamide], the IC50 came to 100 pM. The figure for `Cc1ccc(NC(=O)c2ccnc(C(F)(F)F)c2)cc1-c1cnc2c(c1)N1CCOC[C@H]1C[C@@H]2O` (racemic) [Example 37, (rac)-(cis)-N-(3-(6-hydroxy-1,2,4,4a,5,6-hexahydro-[1,4]oxazino[4,3-a][1,5]naphthyridin-9-yl)-4-methylphenyl)-2-(trifluoromethyl)isonicotinamide] is 8.1 pM. For `Cc1ccc(NC(=O)c2ccnc(C(F)(F)F)c2F)cc1-c1cnc2c(c1)C1C3COCC3C1C(=O)N2CCO` (stereo not drawn) [Example 283, 3-fluoro-N-(3-(5-(2-hydroxyethyl)-6-oxo-5,6,6a,6b,7,9,9a,9b-octahydrofuro[3′,4′: 3,4]cyclobuta[1,2-c][1,8]naphthyridin-2-yl)-4-methylphenyl)-2-(trifluoromethyl)-2-isonicotinamide], the IC50 stood at 200 pM. Consider `Cc1ccc(NC(=O)c2cnnc(C(F)(F)F)c2)cc1-c1cc(F)c2c(c1)N1CCOC[C@H]1[C@@](F)(CO)C2` [Example 433, N-(3-((4aS,5R)-5,7-difluoro-5-(hydroxymethyl)-1,2,4,4a,5,6-hexahydro-[1,4]oxazino[4,3-a]quinolin-9-yl)-4-methylphenyl)-6-(trifluoromethyl)pyridazine-4-carboxamide], for which the 50% inhibitory concentration (IC50) stood at 100 pM. For the compound `Cc1ccc(NC(=O)c2ccnc(C(F)(F)F)c2F)cc1-c1cnc2c(c1)N1CCOCC1C(C)(C)C2O` (stereo not drawn) [Example 336, 3-fluoro-N-(3-(6-hydroxy-5,5-dimethyl-1,2,4,4a,5,6-hexahydro-[1,4]oxazino[4,3-a][1,5]naphthyridin-9-yl)-4-methylphenyl)-2-(trifluoromethyl) isonicotinamide], the IC50 turned out to be 200 pM. The compound `CCN1C[C@H]2CCOCCN2c2cc(-c3cc(NC(=O)c4cccc(C(F)(F)F)c4)cnc3C)cnc2C1=O` [Example 507, (R)-N-(5-(7-ethyl-8-oxo-1,2,4,5,5a,6,7,8-octahydropyrido[2′, 3′:6,7][1,4]diazepino [1,2-d][1,4]oxazepin-11-yl)-6-methylpyridin-3-yl)-3-(trifluorometh-yl)benzamide] yielded an IC50 of 26900 pM. `CCN1C(=O)N2COCCC2(C)c2cc(-c3cc(NC(=O)c4cccc(C(F)(F)F)c4)cnc3C)ccc21` (stereo not drawn) [Example 243]: the IC50 amounted to 600 pM. In turn, `Cc1ccc(NC(=O)c2cnnc(C(F)(F)F)c2)cc1-c1cnc2c(c1)N1CCOC[C@H]1CC(=O)N2CCO` [Example 323, (R)-N-(3-(7-(2-hydroxyethyl)-6-oxo-2,4,4a,5,6,7-hexahydro-1H-[1,4]oxazino[4,3-d]pyrido[2,3-b][1,4]diazepin-10-yl)-4-methylphenyl)-6-(trifluoromethyl) pyridazine-4-carboxamide] yielded an IC50 of 200 pM. `Cc1ccc(NC(=O)c2ccnc(C(C)(F)F)c2)cc1-c1ccc2c(c1)N1CCOC[C@@H]1C[C@]2(C)O` [Example 25, 2-(1,1-difluoroethyl)-N-(3-((4aS,6S)-6-hydroxy-6-methyl-1,2,4,4a,5,6-hexahydro-[1,4]oxazino[4,3-a]quinolin-9-yl)-4-methylphenyl)isonicotinamide] yielded an IC50 of 520 pM.

`Cc1ncc(NC(=O)c2ccnc(C(F)(F)F)c2)cc1-c1ccc2c(c1)N1CCOCC[C@H]1C[C@H]2O` [Example 442, N-(5-((5aS,7R)-7-hydroxy-1,2,5,5a,6,7-hexahydro-4H-[1,4]oxazepino [4,5-a]quinolin-10-yl)-6-methylpyridin-3-yl)-2-(trifluoromethyl) isonicotinamide] registered an IC50 of 700 pM. As for `CCN1C(=O)[C@@H]2[C@H]3COC[C@H]3[C@@H]2c2cc(-c3cc(NC(=O)c4ccnc(C(F)(F)F)c4F)ccc3C)cnc21` [Example 273, N-(3-((6aS, 6bS, 9aS, 9bS)-5-ethyl-6-oxo-5,6,6a,6b,7,9,9a,9b-octahydrofuro[3′,4′: 3,4]cyclobuta[1,2-c][1,8]naphthyridin-2-yl)-4-methylphenyl)-3-fluoro-2-(trifluoromethyl) isonicotinamide], 200 pM corresponded to half-maximal inhibition (IC50). With `CCN1C(=O)C[C@H]2COCCN2c2cc(-c3cc(NC(=O)c4ccnc(C(F)(F)F)c4)ccc3C)cnc21` [Example 130, (S)-N-(3-(7-ethyl-6-oxo-1,2,4a,5,6,7-hexahydro-4H-[1,4]oxazino[4,3-d]pyrido[2,3-b][1,4]diazepin-10-yl)-4-methylphenyl)-2-(trifluoromethyl)isonicotinamide] the figure was 370 pM; with `Cc1ccc(NC(=O)c2ccnc(C(F)(F)F)c2)cc1-c1cnc2c(c1)C1(C)CCOCCC1C(=O)N2CCO` (single isomer, unassigned) [Example 355, N-(3-((5a,11b-trans)-7-(2-hydroxyethyl)-11b-methyl-6-oxo-1,2,4,5,5a,6,7,11b-octahydrooxepino[4,5-c][1,8]naphthyridin-10-yl)-4-methylphenyl)-2-(trifluoromethyl)isonicotinamide], 1200 pM; with `CCN1C(=O)[C@@H]2COCC[C@H]2c2cc(-c3cc(NC(=O)c4ccnc(C(C)(C)F)c4)ccc3C)cnc21` [Example 254, N-(3-((4aS, 10bR)-6-ethyl-5-oxo-2,4,4a,5,6,10b-hexahydro-1H-pyrano[3,4-c][1,8]naphthyridin-9-yl)-4-methylphenyl)-2-(2-fluoropropan-2-yl)isonicotinamide], 200 pM.
